This note sets out measurements from PMC11589570, “Critical assessment of LC3/GABARAP ligands used for degrader development and ligandability of LC3/GABARAP binding pockets” (Nature Communications, 2024).

Values joined by “and” are separate entries in the source; they are usually repeats but may differ in a detail not shown here. Equal entries are not always repeated.

One assay concerns U2OS cells. The assay can be described thus: Cell growth assay (IncuCyte confluence over 72 h). In kind it is cell-based. More on the design: key to U2OS cell growth: % of well area covered by cells (confluence). As for the experimental part: Cell growth assay: Cell confluence (phase) from RPE1 (hTERT RPE-1, ATCC CLR_4000) or U2OS (ATCC, HTB-96) cell lines were monitored over time with the IncuCyte S3 (Sartiorius, Germany) in 384-well plates in 50 ul DMEM media, supplemented with 10% Fetal Bovine Serum (FBS) 1% penicillin/Streptomycin and incubated 24 h before treatment. Experiment was performed as described in Cano-Franco et al.. […] Cell confluence is represented as % of area covered by cells. Each data point represents the average ratio or confluence obtained from three individual wells of the plate.

In the next assay the test system is RPE1 cells. The assay can be described thus: Cell growth assay (IncuCyte confluence over 72 h). In kind it is cell-based. As for the experimental part:
Cell growth assay: Cell confluence (phase) from RPE1 (hTERT RPE-1, ATCC CLR_4000) or U2OS (ATCC, HTB-96) cell lines were monitored over time with the IncuCyte S3 (Sartiorius, Germany) in 384-well plates in 50 ul DMEM media, supplemented with 10% Fetal Bovine Serum (FBS) 1% penicillin/Streptomycin and incubated 24 h before treatment. Experiment was performed as described in Cano-Franco et al.. 50 μl of media containing either 2× final concentration of indicated compounds in or control compounds (final conc.: 0.1% DMSO, 250 nM Torin1, 200 ng/mL Bafilomycin) were added and images were taken every two hours over 72 h. Cell confluence is represented as % of area covered by cells. Each data point represents the average ratio or confluence obtained from three individual wells of the plate.

The next assay has as its target LC3A (Homo sapiens, UniProt Q9H492). The assay can be described thus: FP assay with Cy5-labelled p62 LIR tracer (protein titration and tracer displacement). In kind it is binding. As to conditions: LC3A tracer displacement, normalized on p62-LIR positive control.

Regarding `O=C1CC(c2ccc(Cl)c(Cl)c2)CC(=O)C1=CNCCN1CCNCC1` (centres unmarked) [Cov-3], the U2OS cell growth is 33.6743 and 37.4722 and 28.8223 in the assay with U2OS cells (100 nM, time 10 h); 14.5416 and 22.9345 and 12.3076 with U2OS cells (100 nM, time 0 h); 20.4728 and 24.9456 and 18.1328 in the assay on U2OS cells (100 nM, time 2 h); 32.466 and 35.1005 and 23.9495 with U2OS cells (100 nM, time 4 h); 27.7123 and 37.9082 and 23.0201 in the assay on U2OS cells (100 nM, time 6 h); 36.178 and 29.1087 and 28.1634 in the assay on U2OS cells (100 nM, time 8 h). In addition, the U2OS cell growth in the assay with U2OS cells (500 nM, time 0 h) is 19.4597 and 15.6761 and 23.7515; in the assay with U2OS cells (500 nM, time 2 h), 17.2401 and 19.2948 and 26.8842; in the assay on U2OS cells (500 nM, time 4 h) it was 23.0548 and 20.6729 and 33.4847; in the assay on U2OS cells (500 nM, time 6 h), 31.9275 and 22.0748 and 27.2708; with U2OS cells (500 nM, time 8 h) it was 20.0458 and 23.4357 and 28.1267; in the assay on U2OS cells (1 uM, time 10 h), 29.6152. Besides, the U2OS cell growth with U2OS cells (1 uM, time 0 h) was 18.8183 and 26.6645 and 23.9984; in the assay on U2OS cells (1 uM, time 2 h), 21.0614 and 26.8371 and 29.3905; in the assay on U2OS cells (1 uM, time 4 h), 24.6352 and 31.1306 and 32.3496; in the assay on U2OS cells (1 uM, time 6 h), 26.5224 and 36.4121 and 30.4909; in the assay with U2OS cells (1 uM, time 8 h), 20.3314 and 37.2236 and 29.7059; with U2OS cells (3 uM, time 0 h), 36.1248 and 21.9705 and 35.4647. For the same molecule, the U2OS cell growth in the assay on U2OS cells (3 uM, time 2 h) is 38.4423 and 25.3153 and 30.1014; in the assay on U2OS cells (3 uM, time 4 h), 41.4594 and 31.6601 and 38.4044; in the assay with U2OS cells (3 uM, time 6 h), 35.1153 and 23.5308 and 36.0085; with U2OS cells (3 uM, time 8 h) it was 37.1896 and 25.2973 and 34.3262; with U2OS cells (5 uM, time 10 h) it was 45.8479 and 32.8378 and 36.0561; in the assay on U2OS cells (5 uM, time 0 h), 35.0072 and 29.5152 and 28.3077. Besides, the U2OS cell growth with U2OS cells (5 uM, time 2 h) is 34.3656 and 30.4257 and 30.1228; in the assay with U2OS cells (5 uM, time 4 h), 36.9905 and 31.4377 and 28.9247; with U2OS cells (5 uM, time 6 h) it was 42.578 and 38.6163 and 31.6899; in the assay on U2OS cells (5 uM, time 8 h), 38.0361 and 32.4495 and 27.1279; in the assay on U2OS cells (10 uM, time 10 h), 36.2219 and 24.7441 and 23.9347; in the assay with U2OS cells (10 uM, time 0 h), 31.5761 and 18.5024 and 22.4964. Besides, the U2OS cell growth in the assay with U2OS cells (10 uM, time 2 h) is 30.3213 and 20.7145 and 20.7242; with U2OS cells (10 uM, time 4 h) it was 34.613 and 22.1736 and 25.1322; in the assay with U2OS cells (10 uM, time 6 h) it was 35.028 and 21.2307 and 23.3926; in the assay on U2OS cells (10 uM, time 8 h), 32.1571 and 22.7698 and 18.9042. The RPE1 cell growth is 12 and 21 and 11 with RPE1 cells (100 nM, 0 h); 14 and 25 and 13 with RPE1 cells (100 nM, 2 h); 19 and 28 and 14 with RPE1 cells (100 nM, 6 h); 20 and 32 and 17 in the assay on RPE1 cells (100 nM, 12 h); 15 and 23 and 13 in the assay on RPE1 cells (500 nM, 0 h); 16 and 27 and 14 in the assay with RPE1 cells (500 nM, 2 h). The RPE1 cell growth was 20 and 32 and 17 in the assay with RPE1 cells (500 nM, 6 h); 21 and 34 and 17 in the assay on RPE1 cells (500 nM, 10 h); 23 and 35 and 18 with RPE1 cells (500 nM, 12 h); 13 and 24 in the assay with RPE1 cells (1 uM, 0 h); 16 and 20 and 31 in the assay on RPE1 cells (1 uM, 8 h); 17 and 18 and 32 in the assay with RPE1 cells (1 uM, 10 h). Also, the RPE1 cell growth in the assay with RPE1 cells (1 uM, 12 h) is 18 and 19 and 34; in the assay with RPE1 cells (3 uM, 0 h), 16 and 20 and 13; in the assay on RPE1 cells (3 uM, 2 h), 21 and 23 and 14; with RPE1 cells (3 uM, 4 h), 23 and 26 and 14; in the assay on RPE1 cells (3 uM, 6 h) it was 24 and 27 and 16; in the assay with RPE1 cells (3 uM, 8 h), 24 and 29 and 17. The RPE1 cell growth in the assay on RPE1 cells (3 uM, 10 h) is 23 and 29 and 18; in the assay with RPE1 cells (3 uM, 12 h) it was 26 and 31 and 20; in the assay with RPE1 cells (5 uM, 0 h) it was 16 and 20 and 13; with RPE1 cells (5 uM, 2 h) it was 20 and 24 and 15; in the assay with RPE1 cells (5 uM, 4 h) it was 22 and 26 and 15; in the assay with RPE1 cells (5 uM, 6 h), 23 and 28 and 18. Also, the RPE1 cell growth with RPE1 cells (5 uM, 8 h) is 24 and 30 and 18; in the assay on RPE1 cells (5 uM, 10 h), 22 and 29 and 19; in the assay on RPE1 cells (5 uM, 12 h), 23 and 32 and 20; in the assay on RPE1 cells (10 uM, 0 h), 16 and 20 and 13; with RPE1 cells (10 uM, 2 h), 19 and 23 and 17; in the assay with RPE1 cells (10 uM, 4 h), 22 and 25 and 18. Moreover, the RPE1 cell growth with RPE1 cells (10 uM, 6 h) was 22 and 29 and 20; with RPE1 cells (10 uM, 8 h), 24 and 31 and 21; with RPE1 cells (10 uM, 10 h), 23 and 30; with RPE1 cells (10 uM, 12 h), 26 and 32 and 23.
As for `CCCCCCC(Sc1nc(Cl)cc(Nc2nc(-c3ccc(Cl)cc3)cs2)n1)C(=O)O` (centres unmarked) [TH018], the “% tracer bound @LC3A” value on LC3A is 81%.
The same measure, in the same setting: to `CCCCCCC(Sc1nc(Cl)cc(Nc2nc(-c3ccccc3)cs2)n1)C(=O)O` (centres unmarked) [TH020] belongs 84%.
On the same count and under the same terms, to `CCCCCCC(Sc1nc(Cl)cc(Nc2nc(-c3ccc(Br)cc3)cs2)n1)C(=O)O` (centres unmarked) [TH026] belongs 79%; to `CCCCCCC(Sc1nc(Cl)cc(Nc2nc(-c3ccc4ccccc4c3)cs2)n1)C(=O)O` (centres unmarked) [TH034], 79%.
Same read-out and setting: under `CCC(Sc1nc(Cl)cc(Nc2nc(-c3ccc(Cl)cc3)cs2)n1)C(=O)O` (centres unmarked) [TH035] stands 85%; under `CCCCCCC(Sc1nc(Cl)cc(Nc2nc(-c3ccc(F)c(F)c3)cs2)n1)C(=O)O` (centres unmarked) [TH044], 76%; under `CCCCCCC(Sc1nc(Cl)cc(Nc2nc(-c3ccc(F)cc3F)cs2)n1)C(=O)O` (centres unmarked) [TH054], 75%.
As for `CCCCCCC(Sc1nc(Cl)cc(Nc2nc(-c3ccc([N+](=O)[O-])cc3)cs2)n1)C(=O)O` (centres unmarked) [TH056], the “% tracer bound @LC3A” value on LC3A is 61%.
Regarding `CCCCCCC(Sc1nc(Cl)cc(Nc2nc(-c3ccc(Br)cc3)c(C)s2)n1)C(=O)O` (centres unmarked) [TH057], the “% tracer bound @LC3A” value on LC3A is given as 94%.
The same measure, in the same setting: under `COc1ccc(CN(Cc2cccc(C#N)c2)S(=O)(=O)c2ccc(C(=O)O)cc2)cc1` [TH061] stands 83%; under `CCCCCCC(Sc1nc(Cl)cc(Nc2nc3c(s2)CCc2cc(OC)ccc2-3)n1)C(=O)O` (centres unmarked) [TH062], 76%.
On to `CCCCCCC(Sc1nc(Cl)cc(Nc2nc(-c3ccc(Cl)c(Cl)c3)cs2)n1)C(=O)O` (centres unmarked) [TH083], for which the “% tracer bound @LC3A” value on LC3A stood at 84%.
On the same count and under the same terms, under `CCCCCCC(Sc1nc(Cl)cc(Nc2nc(-c3ccc(C(F)(F)F)cc3)cs2)n1)C(=O)O` (centres unmarked) [TH084] stands 76%; under `CCCCCCC(Sc1nc(Cl)cc(Nc2nc(-c3ccccc3)c(CC)s2)n1)C(=O)O` (centres unmarked) [TH100], 77%; under `CCCCCCC(Sc1nc(Cl)cc(Nc2nc(-c3ccc(Cl)cc3Cl)cs2)n1)C(=O)O` (centres unmarked) [TH102], 78%.
The same measure, in the same setting: under `CCCCCCC(Sc1nc(Cl)cc(Nc2nc(-c3ccc(-c4ccccc4)cc3)cs2)n1)C(=O)O` (centres unmarked) [TH104] stands 82%; under `CCCCCCC(Sc1nc(Cl)cc(Nc2nc(C34CC5CC(CC(C5)C3)C4)cs2)n1)C(=O)O` (centres unmarked) [TH105], 84%.
The same measure, in the same setting: under `CCC(Sc1nc(Cl)cc(Nc2nc(-c3ccc4ccccc4c3)cs2)n1)C(=O)O` (centres unmarked) [TH107] stands 82%; under `COc1ccc(CN(CC2CCCCC2)S(=O)(=O)c2ccc(C(=O)O)cc2)cc1` [TH119], 92%; under `CCCCCCC(Sc1nc(Cl)cc(Nc2nc(-c3ccc(OC)cc3)cs2)n1)C(=O)O` (centres unmarked) [TH121], 83%.
As to `O=C(O)c1ccc(S(=O)(=O)N(Cc2ccc(Oc3ccccc3)cc2)CC2CCCCC2)cc1` [TH133], at LC3A, the “% tracer bound @LC3A” value is 82%.
Same read-out and setting: under `CCCCCCC(Sc1nc2ccc(NC(=O)c3ccc(C(C)(C)C)cc3)cc2s1)C(=O)O` (centres unmarked) [TH177] stands 85%.
The same measure, in the same setting: to `CCCCCCC(Sc1nc2ccc(NC(=O)c3ccc(-c4ccccc4)cc3)cc2s1)C(=O)O` (centres unmarked) [TH181] belongs 78%.
Same read-out and setting: under `CCCCCCC(Sc1nc2ccc(NCc3ccc(C(C)(C)C)cc3)cc2s1)C(=O)O` (centres unmarked) [TH185] stands 82%; under `CCCCC(Sc1nc2ccc(NC(=O)c3ccc(C(C)(C)C)cc3)cc2s1)C(=O)O` (centres unmarked) [TH188], 89%; under `CCCCCCC(Sc1nc2ccc(NCc3ccc4ccccc4c3)cc2s1)C(=O)O` (centres unmarked) [TH191], 78%.
For the molecule `CCCCCCC(Sc1nc2ccc(NCc3ccccc3)cc2s1)C(=O)O` (centres unmarked) [TH195], at LC3A, the “% tracer bound @LC3A” value was found to be 78%.
